In data set [1] the test system is Mus musculus. As to the kind of experiment: Anticonvulsant activity in Carworth Farm1 mouse assessed as protection against subcutaneous pentylenetetrazole-induced seizures at 400 mg/kg, ip after 30 mins. Format: functional, organism-based.
The subject of data set [2] is Mus musculus. As to the kind of experiment: Neurotoxicity in Carworth Farm1 mouse assessed as somnolence up to 100 mg/kg, ip. The following applies: in vivo. Format: toxicity, organism-based.
In data set [3] the test system is Mus musculus. As to the kind of experiment: Neurotoxicity in Carworth Farm1 mouse assessed as sedation up to 100 mg/kg, ip. Format: toxicity, organism-based. Particulars: in vivo.
Data set [4] deals with Mus musculus. As to the kind of experiment: Neurotoxicity in Carworth Farm1 mouse assessed as muscle relaxation up to 100 mg/kg, ip. It counts as toxicity, organism-based. The following applies: in vivo.
Data set [5] has as its system Mus musculus. Briefly: Anticonvulsant activity in Carworth Farm1 mouse assessed as protection against maximal electroshock-induced seizures at 50 mg/kg, ip administered 30 mins prior to 60-Hz current induction. It counts as functional, organism-based. (In general: In the maximal electroshock model the usual endpoint is tonic extension of the hind limbs.)
Data set [6] relates to Mus musculus. Briefly: Anticonvulsant activity in Carworth Farm1 mouse assessed as protection against maximal electroshock-induced seizures at 100 mg/kg, ip administered 30 mins prior to 60-Hz current induction. Format: functional, organism-based.
Data set [7] deals with Mus musculus. As to the kind of experiment: Anticonvulsant activity in Carworth Farm1 mouse assessed as protection against subcutaneous pentylenetetrazole-induced seizures at 100 mg/kg, ip after 30 mins. Format: functional, organism-based.
Data set [8] has as its system Mus musculus. Briefly: Anticonvulsant activity in ip dosed Carworth Farm1 mouse assessed as protection against maximal electroshock-induced seizures administered 30 mins prior to 60-Hz current induction. It counts as functional.
Data set [9] concerns Mus musculus. Briefly: Anticonvulsant activity in ip dosed Carworth Farm1 mouse assessed as protection against subcutaneous pentylenetetrazole-induced seizures after 30 mins. Particulars: Carworth Farm1, 0.5 h. Format: functional.
Data set [10] has as its system Mus musculus. Briefly: Anticonvulsant activity in Carworth Farm1 mouse assessed as protection against maximal electroshock-induced seizures at 25 mg/kg, ip administered 30 mins prior to 60-Hz current induction. It counts as functional, organism-based.
Data set [11] can be described thus: Metabolic stability in rat liver microsomes assessed as amount of parent compound remaining after 30 mins. It counts as ADME. The following applies: read-out: Stability. (In general: Microsomes from liver hold many membrane-bound enzymes, among them those of drug oxidation.)
The test system of data set [12] is Mus musculus. As to the kind of experiment: Anticonvulsant activity in Carworth Farm1 mouse assessed as protection against maximal electroshock-induced seizures at 100 to 400 mg/kg, ip administered 30 mins prior to 60-Hz current induction. It counts as functional, organism-based.
The subject of data set [13] is Mus musculus. As to the kind of experiment: Anticonvulsant activity in Carworth Farm1 mouse assessed as protection against maximal electroshock-induced seizures at 400 mg/kg, ip administered 30 mins prior to 60-Hz current induction. It counts as functional, organism-based.
Data set [14] concerns Mus musculus. Briefly: Anticonvulsant activity in Carworth Farm1 mouse assessed as protection against maximal electroshock-induced seizures at 50 to 100 mg/kg, ip administered 30 mins prior to 60-Hz current induction. Format: functional, organism-based.

In general, ED50 refers to the dose that gives a 50% effect, or the effect in half of the subjects.

Activity calls are given as the source filed them. No cut-off for these calls is given here.

In the case of `CCN(CC)S(=O)(=O)c1cccc(Cl)c1`, the result in the data set with Mus musculus [1], with Mus musculus [5] and in the data set with Mus musculus [6] was Active. Besides, the Activity entry in the data set with Mus musculus [2], in the data set on Mus musculus [3] and with Mus musculus [4] was “Non-Toxic” in each case.
With `CN(C)S(=O)(=O)c1cccc(C#N)c1`, the Activity entry in the data set with Mus musculus [2], with Mus musculus [3] and in the data set with Mus musculus [4] was “Non-Toxic” throughout. The outcome with Mus musculus [5] and with Mus musculus [6] was Active.
Take `COc1cccc(S(=O)(=O)N(C)C)c1`: the Activity entry in the data set on Mus musculus [2], with Mus musculus [3] and in the data set with Mus musculus [4] was “Non-Toxic” each time.
As for `CNS(=O)(=O)Cc1cccc(Cl)c1`, the Activity result with Mus musculus [2], in the data set with Mus musculus [3] and with Mus musculus [4] was “Non-Toxic” in each case.
Turning to `CCCN(C)S(=O)(=O)c1cccc(Cl)c1`, the Activity result in the data set with Mus musculus [2], in the data set with Mus musculus [3] and in the data set with Mus musculus [4] was “Non-Toxic” each time.
On to `CN(C)S(=O)(=O)c1ccc(Cl)c(Cl)c1`, for which the Activity entry in the data set with Mus musculus [2], in the data set with Mus musculus [3] and in the data set with Mus musculus [4] was “Non-Toxic” in each case. Also, the outcome with Mus musculus [6] was Active.
For the molecule `Cc1cccc(S(=O)(=O)N(C)C)c1`, the Activity entry in the data set with Mus musculus [2], in the data set on Mus musculus [3] and in the data set on Mus musculus [4] was “Non-Toxic” in each case.
On to `CN(C)S(=O)(=O)c1ccccc1`, for which the Activity result with Mus musculus [2], in the data set with Mus musculus [3] and in the data set with Mus musculus [4] was “Non-Toxic” throughout. Besides, the outcome in the data set with Mus musculus [6] was Active.
For `CN(C)S(=O)(=O)c1cccc(C(F)(F)F)c1`, the outcome with Mus musculus [7] and with Mus musculus [6] was Active. For the same molecule, the Activity result in the data set with Mus musculus [2], with Mus musculus [3] and in the data set with Mus musculus [4] was “Non-Toxic” each time.
Regarding `CC1(C)O[C@@H]2[C@@H](CO[C@@]3(COS(N)(=O)=O)OC(C)(C)O[C@@H]23)O1` [TOPIRAMATE], the median effective dose (ED50) in the data set with Mus musculus [8] was 33 mg/kg; in the data set with Mus musculus [9], more than 800 mg/kg.
Take `CN(C)S(=O)(=O)c1cccc(Br)c1`: the Activity entry in the data set with Mus musculus [2], with Mus musculus [3] and in the data set with Mus musculus [4] was “Non-Toxic” each time. The result in the data set with Mus musculus [5] and in the data set on Mus musculus [6] was Active.
On to `CN(C)S(=O)(=O)c1cccc(Oc2ccccc2)c1`, for which the Activity entry in the data set with Mus musculus [2], in the data set with Mus musculus [3] and with Mus musculus [4] was “Non-Toxic” in each case.
As to `NS(=O)(=O)c1cccc(Cl)c1`, the outcome in the data set with Mus musculus [10], in the data set on Mus musculus [5] and with Mus musculus [6] was Active. In addition, the Activity result with Mus musculus [2], in the data set with Mus musculus [3] and with Mus musculus [4] was “Non-Toxic” throughout.
As for `CN(CCO)S(=O)(=O)c1cccc(Cl)c1`, the Activity entry in the data set with Mus musculus [2], in the data set on Mus musculus [3] and in the data set on Mus musculus [4] was “Non-Toxic” each time.
Take `O=S(=O)(c1cccc(Cl)c1)N1CCCC1`: the Activity entry in the data set with Mus musculus [2], in the data set with Mus musculus [3] and in the data set on Mus musculus [4] was “Non-Toxic” each time.
As for `CN(C)S(=O)(=O)c1cccc(Cl)c1`, the ED50 is 12 mg/kg in the data set on Mus musculus [8] and 34 mg/kg in the data set on Mus musculus [9]. In addition, the result in the data set on Mus musculus [7], in the data set with Mus musculus [1], in the data set with Mus musculus [10], with Mus musculus [5] and in the data set on Mus musculus [6] was Active. In [11], the remaining at 0.5 h is 95%. For the same molecule, the Activity entry in the data set on Mus musculus [2], in the data set with Mus musculus [3] and in the data set with Mus musculus [4] was “Non-Toxic” each time.
Turning to `NS(=O)(=O)Cc1noc2ccccc12` [ZONISAMIDE], the 50% effective dose (ED50) in the data set with Mus musculus [8] is 20 mg/kg; in the data set on Mus musculus [9], more than 500 mg/kg.
`CN(C)S(=O)(=O)c1cccc(F)c1`: the outcome in the data set with Mus musculus [7], with Mus musculus [10], in the data set with Mus musculus [5] and with Mus musculus [6] was Active. The Activity entry in the data set on Mus musculus [2], with Mus musculus [3] and in the data set with Mus musculus [4] was “Non-Toxic” each time.
As to `CN(C)S(=O)(=O)c1ccccc1Cl`, the outcome in the data set with Mus musculus [12], in the data set on Mus musculus [1], in the data set on Mus musculus [13], in the data set with Mus musculus [5] and with Mus musculus [6] was Active. The Activity result in the data set on Mus musculus [2], with Mus musculus [3] and in the data set on Mus musculus [4] was “Non-Toxic” throughout.
In the case of `CN(C)S(=O)(=O)c1cccc(OC(F)(F)F)c1`, the Activity result in the data set with Mus musculus [2], in the data set with Mus musculus [3] and with Mus musculus [4] was “Non-Toxic” throughout. In addition, the result in the data set with Mus musculus [6] was Active.
Regarding `CN(C)S(=O)(=O)c1cccc([N+](=O)[O-])c1`, the Activity result in the data set on Mus musculus [2], in the data set on Mus musculus [3] and with Mus musculus [4] was “Non-Toxic” each time. Moreover, the result in the data set on Mus musculus [6] was Active.
Consider `CN(C)S(=O)(=O)c1cc(Cl)cc(Cl)c1`, for which the Activity entry in the data set with Mus musculus [2], in the data set on Mus musculus [3] and in the data set with Mus musculus [4] was “Non-Toxic” each time. Further, the outcome in the data set on Mus musculus [6] was Active.
For the molecule `CCNC(=O)C1=C(Cl)c2ccccc2S(=O)(=O)N1C`, the outcome in the data set on Mus musculus [14] was Active.
Turning to `CN(C)S(=O)(=O)c1cccc(N)c1`, the Activity entry in the data set with Mus musculus [2], in the data set on Mus musculus [3] and with Mus musculus [4] was “Non-Toxic” each time.
As to `CNS(=O)(=O)c1cccc(Cl)c1`, the result in the data set with Mus musculus [1], with Mus musculus [10], in the data set with Mus musculus [5] and in the data set with Mus musculus [6] was Active. In addition, the Activity entry in the data set with Mus musculus [2], in the data set on Mus musculus [3] and in the data set with Mus musculus [4] was “Non-Toxic” throughout.
For `CN(C)S(=O)(=O)c1cc(Cl)ccc1Cl`, the Activity entry in the data set on Mus musculus [2], in the data set with Mus musculus [3] and in the data set on Mus musculus [4] was “Non-Toxic” throughout.
Turning to `CN(C)S(=O)(=O)c1ccc(Cl)cc1`, the outcome in the data set on Mus musculus [1], with Mus musculus [10], in the data set with Mus musculus [5] and in the data set on Mus musculus [6] was Active. In addition, the Activity result with Mus musculus [2], in the data set with Mus musculus [3] and in the data set on Mus musculus [4] was “Non-Toxic” in each case.

Values taken from ChEMBL document CHEMBL3872240, “Simple N,N-dimethyl phenylsulfonamides show potent anticonvulsant effect in two standard epilepsy models” (Bioorg Med Chem Lett, 2017).
